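1) Cells in 96-well plates. 2) Compound, 48 h, 5 concentrations. 3) Linear interpolation between surrounding doses. 4) Unreached endpoint = highest concentration. GI50 marks 50% less growth.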 Activity calls are given as the source filed them. Rule as the data show it: active = GI50 up to about 1.1 µM and inactive = higher.
How the values were obtained:
Assay in all cases: inhibition of tumour cell growth, NCI panel, 48 h
A549 = test system: A549
PC-3 = test system: PC-3
Malme-3M = test system: Malme-3M
MDA-N = test system: MDA-N
SF-268 = test system: SF-268
UACC-257 = test system: UACC-257
OVCAR-5 = test system: OVCAR-5
UO-31 = test system: UO-31
OVCAR-4 = test system: OVCAR-4
SNB-75 = test system: SNB-75
NCI-H460 = test system: NCI-H460
NCI/ADR-RES = test system: NCI/ADR-RES
SF-295 = test system: SF-295
ACHN = test system: ACHN
A498 = test system: A498
OVCAR-8 = test system: OVCAR-8
HOP-92 = test system: HOP-92
DU-145 = test system: DU-145
CCRF-CEM = test system: CCRF-CEM
RXF 393 = test system: RXF 393

Measured: GI50

N#CC(CC(=O)O)=C(c1ccccc1)c1ccccc1
inactive: A549 > 100 µM | PC-3 > 100 µM | Malme-3M > 100 µM | MDA-N > 100 µM | SF-268 > 100 µM | UACC-257 > 100 µM | OVCAR-5 > 100 µM | UO-31 > 100 µM | OVCAR-4 > 100 µM | SNB-75 > 100 µM | NCI-H460 > 100 µM | NCI/ADR-RES > 100 µM | SF-295 > 100 µM | ACHN > 100 µM | A498 > 100 µM | OVCAR-8 > 100 µM | HOP-92 > 100 µM

CCOC(OCC)[C@@H]1C[C@@H]2N(O[C@H](OC3CCCC3(c3ccccc3)c3ccccc3)[C@H](OC(C)=O)[C@@]2(CC)Cc2ccc(OC)c(OC)c2)O1 (stereo partly specified)
inactive: A549 > 100 µM | PC-3 > 100 µM | MDA-N > 100 µM | SF-268 > 100 µM | UACC-257 > 100 µM | OVCAR-5 > 100 µM | UO-31 > 100 µM | DU-145 > 100 µM | OVCAR-4 > 100 µM | SNB-75 > 100 µM | NCI-H460 > 100 µM | NCI/ADR-RES > 100 µM | CCRF-CEM > 100 µM | RXF 393 > 100 µM | SF-295 > 100 µM | ACHN > 100 µM

Cc1ccccc1C(=O)C#Cc1cn(C2CC(O)C(CO)O2)c(=O)[nH]c1=O (stereo unspecified)
inactive: A549 > 100 µM | PC-3 > 100 µM | Malme-3M 18.3 µM | MDA-N > 100 µM | SF-268 > 100 µM | UACC-257 > 100 µM | UO-31 > 100 µM | DU-145 > 100 µM | OVCAR-4 > 100 µM | SNB-75 > 100 µM | NCI-H460 > 100 µM | NCI/ADR-RES > 100 µM | CCRF-CEM 20.5 µM | RXF 393 > 100 µM | SF-295 > 100 µM | ACHN > 100 µM | OVCAR-8 > 100 µM | HOP-92 74.1 µM

O=C1C(=Cc2cccc(Cl)c2)N=C(c2ccccc2)N1n1c(-c2ccccc2)nc2ccccc2c1=O
inactive: A549 32.9 µM | PC-3 28.8 µM | Malme-3M 50.8 µM | MDA-N 33.8 µM | SF-268 32.4 µM | UACC-257 32.1 µM | OVCAR-5 67.6 µM | UO-31 34.4 µM | DU-145 52.2 µM | OVCAR-4 42.3 µM | SNB-75 29.9 µM | NCI-H460 6 µM | NCI/ADR-RES 30.9 µM | CCRF-CEM 22.9 µM | RXF 393 33.5 µM | SF-295 39 µM | ACHN 37.7 µM | OVCAR-8 28.7 µM | HOP-92 27 µM

CC12C(=O)CC(CC1=O)C2(C)C
inactive: A549 > 100 µM | PC-3 > 100 µM | Malme-3M > 100 µM | MDA-N > 100 µM | SF-268 > 100 µM | UACC-257 > 100 µM | OVCAR-5 > 100 µM | UO-31 > 100 µM | DU-145 > 100 µM | OVCAR-4 > 100 µM | SNB-75 > 100 µM | NCI-H460 > 100 µM | NCI/ADR-RES > 100 µM | CCRF-CEM > 100 µM | SF-295 > 100 µM | ACHN > 100 µM | OVCAR-8 > 100 µM | HOP-92 > 100 µM

Cc1ccc(S(=O)(=O)NC(=O)Nc2ccc(C(=O)O)c(O)c2)cc1
inactive: A549 > 100 µM | PC-3 > 100 µM | Malme-3M > 100 µM | SF-268 > 100 µM | OVCAR-5 > 100 µM | UO-31 > 100 µM | DU-145 > 100 µM | OVCAR-4 > 100 µM | SNB-75 > 100 µM | NCI-H460 > 100 µM | NCI/ADR-RES > 100 µM | CCRF-CEM > 100 µM | RXF 393 > 100 µM | SF-295 > 100 µM | ACHN > 100 µM | A498 68.2 µM | OVCAR-8 > 100 µM | HOP-92 > 100 µM

COC1CC(OC2C(C)OC(OC3C(C)OC(OC4C(O)CC(O[C@H]5CC[C@@]6(C)C(=CC[C@]7(O)[C@@H]6C[C@@H](OC(C)=O)[C@@]6(C)[C@]7(O)CC[C@@]6(O)C(C)=O)C5)OC4C)CC3OC)CC2OC)OC(C)C1O (stereo partly specified)
inactive: A549 > 12.5 µM | PC-3 > 12.5 µM | Malme-3M 8.26 µM | MDA-N > 12.5 µM | SF-268 > 12.5 µM | UACC-257 > 12.5 µM | OVCAR-5 > 12.5 µM | UO-31 5.61 µM | DU-145 > 12.5 µM | OVCAR-4 > 12.5 µM | SNB-75 > 12.5 µM | NCI/ADR-RES > 12.5 µM | CCRF-CEM > 12.5 µM | SF-295 > 12.5 µM | ACHN > 12.5 µM | OVCAR-8 > 12.5 µM | HOP-92 > 12.5 µM

CCC(=O)N(c1ccccc1)C(C)CN1CCC(O)(c2cccc(C(F)(F)F)c2)CC1 (stereo unspecified)
inactive: A549 39 µM | PC-3 19.3 µM | MDA-N 19.5 µM | UACC-257 17.5 µM | OVCAR-5 22.8 µM | UO-31 28.8 µM | OVCAR-4 33.3 µM | SNB-75 32.8 µM | NCI/ADR-RES 19.5 µM | CCRF-CEM 19.9 µM | RXF 393 > 100 µM | SF-295 35.4 µM | ACHN 36.2 µM | A498 26.8 µM | OVCAR-8 38.1 µM | HOP-92 22.8 µM

COc1cc(N(CCC#N)CCC#N)ccc1C(=N/NC(=O)c1cc(Br)ccc1O)/N=N/c1ccccc1
inactive: A549 25.4 µM | PC-3 25.5 µM | Malme-3M 31.7 µM | MDA-N 30.1 µM | SF-268 28.5 µM | UACC-257 24.7 µM | OVCAR-5 38.1 µM | UO-31 21.6 µM | DU-145 27.9 µM | OVCAR-4 19.6 µM | SNB-75 27.7 µM | NCI-H460 22.6 µM | NCI/ADR-RES 32.5 µM | CCRF-CEM 8.45 µM | RXF 393 26.4 µM | SF-295 31.6 µM | ACHN 28.2 µM | OVCAR-8 28.4 µM | HOP-92 24.3 µM

O=C1Nc2ccccc2/C1=N/Nc1nc(-c2ccc(Cl)c(Cl)c2)cs1
inactive: A549 > 100 µM | PC-3 24 µM | MDA-N 47 µM | UACC-257 > 100 µM | OVCAR-5 > 100 µM | UO-31 7.01 µM | DU-145 92 µM | OVCAR-4 77.6 µM | SNB-75 49.3 µM | NCI-H460 17.6 µM | NCI/ADR-RES > 100 µM | SF-295 > 100 µM | ACHN 87.1 µM | OVCAR-8 47.4 µM | HOP-92 > 100 µM

Clc1cccc(-c2sc(-c3cccs3)cc2Cc2cccs2)c1
inactive: A549 > 10 µM | PC-3 > 10 µM | Malme-3M > 10 µM | MDA-N > 10 µM | SF-268 > 10 µM | UACC-257 > 10 µM | UO-31 > 10 µM | DU-145 > 10 µM | OVCAR-4 > 10 µM | SNB-75 > 10 µM | NCI-H460 > 10 µM | NCI/ADR-RES > 10 µM | CCRF-CEM > 10 µM | RXF 393 > 10 µM | SF-295 > 10 µM | ACHN > 10 µM | OVCAR-8 > 10 µM | HOP-92 > 10 µM

Reference: ChEMBL document CHEMBL1201862, “PubChem BioAssay data set” (2004)
